Experimental findings from US20020132817A1, “Heterocyclic compounds, their production and use” (priority 1998, published 2002) are described below.

The subject of data set [1] is plasma extravasation induced by capsaicin in trachea of guinea pigs. In words: Inhibitory effect on plasma extravasation induced by capsaicin in trachea of guinea pigs. In kind it is in vivo. The note with it: for ED50: Cavia porcellus, iv, 5 minutes before capsaicin, Evans' blue dye in trachea, read-out: ID50, μg/kg, i.v. The protocol:
Guinea pigs (Hartley type white male guinea pige), (n=6) were anesthetized with 35 mg/kg of pentobarbital injected intraperitoneally (i.p.), then test compounds were administered intravenously (i.v.). After 5 minutes, a mixed solution of capsaicin ([…]) and Evans' blue dye (20 mg/kg) was administered intravenously to cause reaction. Ten minutes later, test animals were sacrificed by cutting the aorta, then perfused through pulmonary artery with 50 ml of physiological saline. The trachea was excised, and its wet weight was measure. The trachea was incubated at room temperature in 1 ml of acetone-0.3% sodium sulfate (7:3) overnight and Evans' blue dye was extracted from the trachea. The extract solution was centrifuged at 2800 rpm for 5 minutes. The amount of Evans' blue dye in the supernatant was quantified by measuring absorbance at […].
The reaction of accelerating the permeability of blood vessels is expressed in terms of the amount of Evans' blue (μg) per trachea unit weight (g) and the effect of drug was evaluated by calculating the degree of inhibition (% inhibition) according to the following equation: […]

For a further data set, the target named is T1, substance P receptor (Homo sapiens, UniProt P25103).
T1 construct: The receptor was prepared from human lymphoblast cells (IM-9); endogenous in cells; host or cells: IM-9 human lymphoblast cells (membrane preparation)
T1 sequence (P25103 whole entry): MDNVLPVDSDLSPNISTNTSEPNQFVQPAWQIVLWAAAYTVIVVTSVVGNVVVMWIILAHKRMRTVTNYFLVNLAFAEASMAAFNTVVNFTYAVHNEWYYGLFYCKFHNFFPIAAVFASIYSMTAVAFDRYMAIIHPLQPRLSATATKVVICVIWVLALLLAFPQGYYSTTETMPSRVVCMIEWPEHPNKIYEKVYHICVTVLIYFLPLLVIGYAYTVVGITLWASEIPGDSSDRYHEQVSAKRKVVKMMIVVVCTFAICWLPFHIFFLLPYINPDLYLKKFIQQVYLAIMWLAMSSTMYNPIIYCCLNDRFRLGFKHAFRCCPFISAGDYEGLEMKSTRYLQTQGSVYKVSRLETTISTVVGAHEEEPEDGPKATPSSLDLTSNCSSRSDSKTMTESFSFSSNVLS
The data set can be described thus: Radioligand receptor binding inhibitory activity using receptor from human lymphoblast cells (IM-9). Conditions: 125I-BHSP radioligand, receptor from IM-9 cells, 25° C. for 30 minutes. The protocol:
Radioligand receptor binding inhibitory activity Binding inhibitory activity using receptor from human lymphoblast cells (IM-9)
The receptor was prepared from human lymphoblast cells (IM-9). IM-9 cells (2×10^5 cells/ml) were inoculated and incubated for 3 days (one liter), which was then subjected to centrifuge for 5 minutes at 500×g to obtain cell pellets. […] The residue was washed twice with 30 ml of the above-mentioned buffer, which was then preserved frozen (−80° C.) as a specimen of the receptor.
The specimen was suspended in a reaction buffer (50 mM Tri-HCl buffer (pH 7.4), 0.02% bovine serum albumin, 1 mM phenylmethylsulfonyl fluoride, […], […] bacitracin, 3 mM manganese chloride) and 100 ul portion was the suspension was used in the reaction. […] The amount of nonspecific binding was determined by adding substance P at a final concentration of 2×10^−6M. After the reaction, using a cell harvester (290 PHD, Cambridge Technology, Inc, U.S.A.), rapid filtration was carried out through a glass filter (GF/B, Whatman, U.S.A.) to stop the reaction. After washing three times with 250 ul of 50 mM of Tris-HCl buffer (pH 7.4) containing 0.02% bovine serum albumin, the radioactivity remaining on the filter was determined with a gamma counter. Before use, the filter was immersed in 0.1% polyethyleneimine for 24 hours and air-dried.

In a further data set the target is T2, human NK2 receptor (Homo sapiens, UniProt P21452).
T2 construct: expressed in transfected cells; host or cells: COS-7 cells, transient transfection with an SRa-promoter expression vector; membrane preparation
T2 sequence (P21452 1-398): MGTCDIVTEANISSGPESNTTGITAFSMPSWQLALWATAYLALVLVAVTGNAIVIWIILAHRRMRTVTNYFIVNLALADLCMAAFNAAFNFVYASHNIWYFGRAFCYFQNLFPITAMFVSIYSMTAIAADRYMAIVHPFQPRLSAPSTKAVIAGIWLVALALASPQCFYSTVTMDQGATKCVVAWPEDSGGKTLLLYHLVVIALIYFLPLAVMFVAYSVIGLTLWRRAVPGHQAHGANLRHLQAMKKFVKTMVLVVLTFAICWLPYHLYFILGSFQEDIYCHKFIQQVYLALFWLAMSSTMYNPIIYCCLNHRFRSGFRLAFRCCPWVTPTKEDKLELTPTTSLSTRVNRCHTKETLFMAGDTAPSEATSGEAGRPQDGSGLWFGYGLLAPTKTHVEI
The data set can be described thus: Binding inhibitory activity toward human NK2 receptor. Conditions: (2-[125I]iodohistidyl1)Neurokinin A 0.1 nM, receptor expressed in COS-7 cells, room temperature 60 min.

Structures are written as SMILES. Marks after values point to notes of the source that are not given here.

`Cc1ccc(-c2c3n(c(=O)c4ncccc24)CCCN(Cc2cc(C(F)(F)F)cc(C(F)(F)F)c2)C3=O)cc1` [Reference Example 56, 7-[3,5-Bis(trifluoromethyl)benzyl]-6,7,8,9,10,12-hexahydro-5-(4-methylphenyl)-6,12-dioxo[1,4]diazepino[2,1-g][1,7]naphthyridine]: the melting point lay in the range of 194 to 195 °C. Besides, in data set [1], the ED50 came to 7.2 µg/kg. For the same molecule, at substance P receptor, the IC50 came to 280 pM.

With `Cc1ccc(-c2c3n(c(=O)c4ncccc24)CCCCN(Cc2cc(C(F)(F)F)cc(C(F)(F)F)c2)C3=O)cc1` [Reference Example 57, 7-[3,5-Bis(trifluoromethyl)benzyl]-6,7,8,9,10,11-hexahydro-5-(4-methylphenyl)-6,13-dioxo-13H-[1,4]diazocino[2,1-g][1,7]naphthyridine], the ED50 in data set [1] turned out to be 4.2 µg/kg. Moreover, the 50% inhibitory concentration (IC50) at substance P receptor was determined as 760 pM.

As to `Cc1ccc(-c2c3n(c(=O)c4ncccc24)CCCCCN(Cc2cc(C(F)(F)F)cc(C(F)(F)F)c2)C3=O)cc1` [Reference Example 60, 7-[3,5-Bis(trifluoromethyl)benzyl]-6,7,8,9,10,11,12,14-octahydro-5-(4-methylphenyl)-6,14-dioxo[1,4]diazonino[2,1-g][1,7]naphthyridine], the ED50 in data set [1] turned out to be 11 µg/kg.

As to `O=C1c2c(-c3ccccc3)c3cccnc3c(=O)n2CCCN1Cc1cc(C(F)(F)F)cc(C(F)(F)F)c1` [Reference Example 61, 7-[3,5-Bis(trifluoromethyl)benzyl]-6,7,8,9,10,12-hexahydro-6,12-dioxo-5-phenyl[1,4]diazepino[2,1-g][1,7]naphthyridine], in data set [1], the ED50 turned out to be 2.6 µg/kg.

`O=C1c2c(-c3ccccc3)c3cccnc3c(=O)n2CCCCN1Cc1cc(C(F)(F)F)cc(C(F)(F)F)c1` [Reference Example 62, 7-[3,5-Bis(trifluoromethyl)benzyl]-6,7,8,9,10,11-hexahydro-6,13-dioxo-5-phenyl-13H-[1,4]diazocino[2,1-g][1,7]naphthyridine]: the ED50 in data set [1] was 3.2 µg/kg. At substance P receptor, this molecule yielded a half-maximal inhibitory concentration (IC50) of 1200 pM.

Turning to `Cc1ccc(-c2c3n(c(=O)c4ncccc24)C[C@H](C)CN(Cc2cc(C(F)(F)F)cc(C(F)(F)F)c2)C3=O)cc1` [Reference Example 66, (9R)-7-[3,5-Bis(trifluoromethyl)benzyl]-6,7,8,9,10,12-hexahydro-9-methyl-5-(4-methylphenyl)-6,12-dioxo[1,4]diazepino[2,1-g][1,7]naphthyridine], the melting point lay in the range of 179 to 180 °C. Further, the ED50 in data set [1] was 41 µg/kg.

`C[C@H]1CN(Cc2cc(C(F)(F)F)cc(C(F)(F)F)c2)C(=O)c2c(-c3ccccc3)c3cccnc3c(=O)n2C1` [Reference Example 67, (9S)-7-[3,5-Bis(trifluoromethyl)benzyl]-6,7,8,9,10,12-hexahydro-9-methyl-6,12-dioxo-5-phenyl[1,4]diazepino[2,1-g][1,7]naphthyridine] displayed a melting point of 150 to 152 °C. Moreover, in data set [1], the ED50 amounted to 1.6 µg/kg. For the same molecule, the IC50 on substance P receptor is 170 pM.

As to `Cc1ccc(-c2c3n(c(=O)c4ncccc24)C[C@@H](C)CN(Cc2cc(C(F)(F)F)cc(C(F)(F)F)c2)C3=O)cc1` [Reference Example 68, (9S)-7-[3,5-Bis(trifluoromethyl)benzyl]-6,7,8,9,10,12-hexahydro-9-methyl-5-(4-methylphenyl)-6,12-dioxo[1,4]diazepino[2,1-g][1,7]naphthyridine], the melting point was in the range of 179 to 180 °C. Besides, the ED50 in data set [1] was found to be 3.2 µg/kg.

Turning to `C[C@@H]1CCn2c(c(-c3ccccc3)c3cccnc3c2=O)C(=O)N(Cc2cc(C(F)(F)F)cc(C(F)(F)F)c2)C1` [Reference Example 71, (9R)-7-[3,5-Bis(trifluoromethyl)benzyl]-6,7,8,9,10,11-hexahydro-9-methyl-6,13-dioxo-5-phenyl-13H-[1,4]diazocino[2,1-g] [1,7]naphthyridine], the melting point was in the range of 245 to 247 °C. Moreover, in data set [1], the ED50 was determined as 1.9 µg/kg. On substance P receptor, the 50% inhibitory concentration (IC50) amounted to 230 pM.

On to `O=C1c2c(-c3ccccc3)ccnc2OCCCN1Cc1cc(C(F)(F)F)cc(C(F)(F)F)c1` [Reference Example 76, 5-[3,5-Bis(trifluoromethyl)benzyl]-2,3,4,5-tetrahydro-6-oxo-7-phenyl-6H-pyrido[2,3-b][1,5]oxazocine], for which the melting point is 188 to 189 °C. On human NK2 receptor, this molecule registered an IC50 of 7500 pM.

With `Cc1cnc2c(c1-c1ccccc1)C(=O)N(Cc1cc(C(F)(F)F)cc(C(F)(F)F)c1)CCO2` [Reference Example 77, 4-[3,5-Bis(trifluoromethyl)benzyl]-2,3,4,5-tetrahydro-7-methyl-5-oxo-6-phenylpyrido[3,2-f][1,4]oxazepine], the “Degree of Inhibition (%)” value in data set [1] (Dosage (i.v.) 100 μg/kg) is given as 64.0* %. For the same molecule, the IC50 on substance P receptor turned out to be 1100 pM.

Regarding `O=C1c2c(-c3ccccc3)c3cccnc3c(=O)n2CCCCN1Cc1ccccc1` [Reference Example 81, 7-Benzyl-6,7,8,9,10,11-hexahydro-6,13-dioxo-5-phenyl-13H-[1,4]diazocino[2,1-g][1,7]naphthyridine], the concentration for half-maximal inhibition (IC50) on human NK2 receptor is 6200 pM.

Consider `Cc1cc(-c2ccccc2)c2c(n1)OCCN(Cc1cc(C(F)(F)F)cc(C(F)(F)F)c1)C2=O` [Reference Example 87, 4-[3,5-Bis(trifluoromethyl)benzyl]-2,3,4,5-tetrahydro-8-methyl-5-oxo-6-phenylpyrido[3,2-f][1,4]oxazepine], for which the melting point lay in the range of 151 to 153 °C. At human NK2 receptor, this molecule registered an IC50 of 9500 pM.

Molecule `C[C@@H]1CCn2c(c(-c3ccc(CO)cc3)c3cccnc3c2=O)C(=O)N(Cc2cc(C(F)(F)F)cc(C(F)(F)F)c2)C1` [Reference Example 137, (9R)-7-[3,5-bis(trifluoromethyl)benzyl]-6,7,8,9,10,11-hexahydro-5-(4-hydroxymethylphenyl)-9-methyl-6,13-dioxo-13H-[1,4]diazosino[2,1-g][1,7]napththylidine] gave a melting point of 240 to 241 °C. Besides, the ED50 in data set [1] stood at 2.5 µg/kg. The concentration for half-maximal inhibition (IC50) at substance P receptor amounted to 840 pM.

As usually defined, the melting point is the temperature of the solid-liquid transition. What is called IC50 is the point on the concentration scale where inhibition reaches its midpoint. Read a low IC50 as greater potency in that assay.
